Results published in US10890591B2, “Methods and dose packs for monitoring medication adherence” (Synapse Biosciences, LLC, priority 2016, dated 2021).

Assays:
[1] = Multiple Marker Experiment 1: saliva samples, marker concentration by LC-MS/MS; conditions: human, in vivo;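 further: mean across four subjects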
Description: (§1) All other markers were obtained from commercial sources. Urine and saliva were collected prior to each day's dosing of marker confirming the presence or absence of markers before the experiment started. […] The presence of all 7 markers at day 8 would confirm that all markers were ingested in the previous 7 day one week period.
(§2) Healthy volunteers with no recent exposure to the markers who were not currently taking prescribed medications, OTC medications or vitamins and supplements were chosen. Exposure to the markers more than one month before starting the experiment was allowed and no dietary restrictions were required. Subjects were given a 7 day blister pack with markers sequenced in the order above. Subjects verbally confirmed they understood the urine and saliva collection procedures. Instructions printed on the marker blister pack instructed subjects to collect urine and saliva each morning before they took the daily dose of marker. They were also instructed to take the daily dose of marker close to the same time each day.

[2] = Multiple Marker Experiment 1: urine samples, adherent with all markers, marker concentration by LC-MS/MS; conditions: for Subject A, Urine Results / Subject B, Urine Results / Subject C, Urine Results / Subject D, Urine Results / Average of Urine Samples / concentration at 8 day: each marker dosed once
Description: as §1, §2

[3] = Multiple Marker Experiment 2: urine samples, simulated non-adherence (one marker dose skipped per subject), LC-MS/MS; conditions: for Subject B, Urine Results / Subject C, Urine Results: collected before that day's dose; for Subject B, Urine Results / Subject C, Urine Results / concentration at 8 day: other markers dosed once; for concentration at 8 day: Urine Results, Day 8 sample
[4] = Day 1 sample, collected before that day's dose, Experiment #1, adherent with all markers
[5] = Day 2 sample, collected before that day's dose, Experiment #1, adherent with all markers
[6] = Day 3 sample, collected before that day's dose, Experiment #1, adherent with all markers
[7] = Day 4 sample, collected before that day's dose, Experiment #1, adherent with all markers
[8] = Day 5 sample, collected before that day's dose, Experiment #1, adherent with all markers
[9] = Day 6 sample, collected before that day's dose, Experiment #1, adherent with all markers
[10] = Day 7 sample, collected before that day's dose, Experiment #1, adherent with all markers
[11] = Day 8 sample, Experiment #1, adherent with all markers

COc1ccc2c(c1)[C@]13CCCC[C@@H]1[C@H](C2)N(C)CC3 [DXM, Dextromethorphan]
concentration at 1 day [1]: 0 ng/mL | concentration at 2 day [1]: 0 ng/mL | concentration at 3 day [1]: 0 ng/mL | concentration at 4 day [1]: 8.4 ng/mL | concentration at 5 day [1]: 1.52 ng/mL | concentration at 6 day [1]: 0.501 ng/mL | concentration at 7 day [1]: 0.439 ng/mL | concentration at 8 day [1]: 0.197 ng/mL | Subject A, Urine Results [2, 4]: 0 ng/mL | Subject B, Urine Results [2, 4]: 0 ng/mL | Subject C, Urine Results [2, 4]: 0 ng/m | Subject D, Urine Results [2, 4]: 0 ng/m | Subject A, Urine Results [2, 5]: 0 ng/mL | Subject B, Urine Results [2, 5]: 0 ng/mL | Subject C, Urine Results [2, 5]: 0 ng/m | Subject D, Urine Results [2, 5]: 0 ng/m | Subject A, Urine Results [2, 6]: 0 ng/mL | Subject B, Urine Results [2, 6]: 0 ng/mL | Subject C, Urine Results [2, 6]: 0 ng/m | Subject D, Urine Results [2, 6]: 0 ng/m | Subject A, Urine Results [2, 7]: 146 ng/mL | Subject B, Urine Results [2, 7]: 358 ng/mL | Subject C, Urine Results [2, 7]: 187 ng/m | Subject D, Urine Results [2, 7]: 641 ng/m | Average of Urine Samples ([2]; Day 4 sample, collected before that day's dose, average of subjects A, B, C, D, Experiment 1): 333 ng/mL | Subject A, Urine Results [2, 8]: 11.7 ng/mL | Subject B, Urine Results [2, 8]: 31.4 ng/mL | Subject C, Urine Results [2, 8]: 15 ng/m | Subject D, Urine Results [2, 8]: 51.8 ng/m | Average of Urine Samples ([2]; Day 5 sample, collected before that day's dose, average of subjects A, B, C, D, Experiment 1): 27.475 ng/mL | Subject A, Urine Results [2, 9]: 3.6 ng/mL | Subject B, Urine Results [2, 9]: 17.8 ng/mL | Subject C, Urine Results [2, 9]: 4.84 ng/m | Subject D, Urine Results [2, 9]: 4.53 ng/m | Average of Urine Samples ([2]; Day 6 sample, collected before that day's dose, average of subjects A, B, C, D, Experiment 1): 7.6925 ng/mL | Subject A, Urine Results [2, 10]: 0.987 ng/mL | Subject B, Urine Results [2, 10]: 3.96 ng/mL | Subject C, Urine Results [2, 10]: 2.12 ng/m | Subject D, Urine Results [2, 10]: 2.61 ng/m | Average of Urine Samples ([2]; Day 7 sample, collected before that day's dose, average of subjects A, B, C, D, Experiment 1): 2.419 ng/mL | Subject C, Urine Results [2, 11]: 0.787 ng/m | Subject D, Urine Results [2, 11]: 1.26 ng/m | course of urine levels relative to dosing ([2]; Experiment 1, days 1-8): zero before dosing, peaked the day after dosing and slowly decreased over time | concentration at 1 day ([2]; human, in vivo): 0 ng/mL | concentration at 2 day ([2]; human, in vivo): 0 ng/mL | concentration at 3 day ([2]; human, in vivo): 0 ng/mL | concentration at 8 day ([2]; human, in vivo, Average of Urine Samples, Day 8 sample, average of subjects A, B, C, D, Experiment 1): 1.49 ng/mL | concentration at 8 day ([2]; human, in vivo, Subject A, Urine Results, Day 8 sample, Experiment #1, adherent with all markers): 0.341 ng/mL | concentration at 8 day ([2]; human, in vivo, Subject B, Urine Results, Day 8 sample, Experiment #1, adherent with all markers): 3.56 ng/mL | Subject B, Urine Results ([3]; Day 1 sample, Experiment #2, subject B skipped diphenhydramine on day 5): 0 ng/mL | Subject C, Urine Results ([3]; Day 1 sample, Experiment #2, subject C skipped Loperamide on day 2): 0 ng/mL | Subject B, Urine Results ([3]; Day 2 sample, Experiment #2, subject B skipped diphenhydramine on day 5): 0 ng/mL | Subject C, Urine Results ([3]; Day 2 sample, Experiment #2, subject C skipped Loperamide on day 2): 0 ng/mL | Subject B, Urine Results ([3]; Day 3 sample, Experiment #2, subject B skipped diphenhydramine on day 5): 0 ng/mL | Subject C, Urine Results ([3]; Day 3 sample, Experiment #2, subject C skipped Loperamide on day 2): 0 ng/mL | Subject B, Urine Results ([3]; Day 4 sample, Experiment #2, subject B skipped diphenhydramine on day 5): 2640 ng/mL | Subject C, Urine Results ([3]; Day 4 sample, Experiment #2, subject C skipped Loperamide on day 2): 377 ng/mL | Subject B, Urine Results ([3]; Day 5 sample, Experiment #2, subject B skipped diphenhydramine on day 5): 181 ng/mL | Subject C, Urine Results ([3]; Day 5 sample, Experiment #2, subject C skipped Loperamide on day 2): 40 ng/mL | Subject B, Urine Results ([3]; Day 6 sample, Experiment #2, subject B skipped diphenhydramine on day 5): 14.7 ng/mL | Subject C, Urine Results ([3]; Day 6 sample, Experiment #2, subject C skipped Loperamide on day 2): 1.35 ng/mL | Subject B, Urine Results ([3]; Day 7 sample, Experiment #2, subject B skipped diphenhydramine on day 5): 16.6 ng/mL | Subject C, Urine Results ([3]; Day 7 sample, Experiment #2, subject C skipped Loperamide on day 2): 1.11 ng/mL | course of urine levels relative to dosing ([3]; Experiment 2, days 1-8): zero before dosing, peaked the day after dosing and slowly decreased over time | concentration at 1 day ([3]; human, in vivo): 0 ng/mL | concentration at 2 day ([3]; human, in vivo): 0 ng/mL | concentration at 3 day ([3]; human, in vivo): 0 ng/mL | concentration at 8 day ([3]; human, in vivo, Subject B, Experiment #2, subject B skipped diphenhydramine on day 5): 2.63 ng/mL | concentration at 8 day ([3]; human, in vivo, Subject C, Experiment #2, subject C skipped Loperamide on day 2): 0.15 ng/mL
